Reference: patent publication US11999748B2, “Exatecan derivatives, linker-payloads, and conjugates and thereof” (priority 2021, dated 2024)

Test system: high HER2 tumor cell line SK-BR-3
Assay: Effect of small molecules on cell proliferation (CellTiter-Glo)
Type: cell-based
Conditions: SK-BR-3, 120 h; (IC50 of control sample Dxd / IC50 of test sample) x 100
Protocol: Study Purpose: In this experiment, cell viability was detected using CellTiter-Glo to evaluate the effects of the small molecule compounds on the proliferation of a high HER2 tumor cell line SK-BR-3, and to analyze the effects of the small molecule compounds on the proliferation of tumor cells.
(4) After the drug was added, the cells were incubated in the incubator for 120 h.
(3) ATP detection: Discard the culture medium and 100 μl/well DMEM was added, 50 μl/hole CTG was added into 96-well plate, protected from light using aluminum foil and oscillated using a vortex oscillator at room temperature of 200 rpm for 10 min.
GraphPad software was used to process the data. […] If necessary, the relative biological activity of sample A, i.e., ratio activity was calculated. Dxd was used as the control sample for the ratio activity calculation. Cell proliferation inhibition rate (%)=(luminescence value of drug-treated group−luminescence value of puro group)/(luminescence value of blank control group−luminescence value of puro group)×100 Ratio activity of sample (%)=(IC50 value of the control sample/IC50 value of the test sample)×100 Ratio activity of control sample (%)=(IC50 value of the control sample/IC50 value of the previous control sample)×100

Structure (SMILES)	Ratio activity (%)
CC[C@@]1(O)C(=O)OCc2c1cc1n(c2=O)Cc2c-1nc1cc(F)c(OC)c3c1c2C(NC(=O)[C@@H](C)O)CC3 (some centres unmarked) [C668]	0.231%
CC[C@@]1(O)C(=O)OCc2c1cc1n(c2=O)Cc2c-1nc1cc(F)c(Br)c3c1c2[C@H](NC(=O)C[C@H](C)O)CC3 [C600]	0.62%
CC[C@@]1(O)C(=O)OCc2c1cc1n(c2=O)Cc2c-1nc1cc(F)c(Cl)c3c1c2[C@H](NC(=O)COCCO)CC3 [C587]	0.285%
CC[C@@]1(O)C(=O)OCc2c1cc1n(c2=O)Cc2c-1nc1cc(F)c(C)c3c1c2[C@@H](NC(=O)[C@H](OCCO)C1CC1)CC3 [C563]	1.284%
CC[C@@]1(O)C(=O)OCc2c1cc1n(c2=O)Cc2c-1nc1cc(F)c(Cl)c3c1c2[C@H](NC(=O)CO)CC3 [C519, N-((1R,9S)-4-chloro-9-ethyl-5-fluoro-9-hydroxy-10,13-dioxo-2,3,9,10,13,15-hexahydro-1H,12H-benzo[de]pyrano[3,4′:6,7]indolizino[1,2-b]quinolin-1-yl)-2-hydroxyacetamide]	1.059%
CC[C@@]1(O)C(=O)OCc2c1cc1n(c2=O)Cc2c-1nc1cc(F)c(Br)c3c1c2[C@H](NC(=O)C[C@@H](C)O)CC3 [C602]	0.29%
CC[C@@]1(O)C(=O)OCc2c1cc1n(c2=O)Cc2c-1nc1cc(F)c(Br)c3c1c2[C@@H](NC(=O)[C@@H](C)O)CC3 [C597]	0.684%
CC[C@@]1(O)C(=O)OCc2c1cc1n(c2=O)Cc2c-1nc1cc(F)c(Br)c3c1c2[C@@H](NC(=O)CO)CC3 [C637]	1.585%
CC[C@@]1(O)C(=O)OCc2c1cc1n(c2=O)Cc2c-1nc1cc(F)c(OC)c3c1c2C(NC(=O)C1(O)CC1)CC3 (mixture of isomers) [C667]	0.658%
CC[C@@]1(O)C(=O)OCc2c1cc1n(c2=O)Cc2c-1nc1cc(F)c(Cl)c3c1c2[C@@H](NC(=O)CO)CC3 [C518, N-((1S,9S)-4-chloro-9-ethyl-5-fluoro-9-hydroxy-10,13-dioxo-2,3,9,10,13,15-hexahydro-1H,12H-benzo[de]pyrano[3′,4′:6,7]indolizino[1,2-b]quinolin-1-yl)-2-hydroxyacetamide]	2.272%
CC[C@@]1(O)C(=O)OCc2c1cc1n(c2=O)Cc2c-1nc1cc(F)c(Br)c3c1c2[C@@H](NC(=O)C[C@@H](C)O)CC3 [C603]	1.439%
CC[C@@]1(O)C(=O)OCc2c1cc1n(c2=O)Cc2c-1nc1cc(F)c(Cl)c3c1c2[C@@H](NC(=O)[C@](C)(O)C(F)(F)F)CC3 [C704]	2.271%
CC[C@@]1(O)C(=O)OCc2c1cc1n(c2=O)Cc2c-1nc1cc(F)c(Br)c3c1c2[C@H](NC(=O)[C@@H](C)O)CC3 [C596]	0.911%
CC[C@@]1(O)C(=O)OCc2c1cc1n(c2=O)Cc2c-1nc1cc(F)c(Cl)c3c1c2[C@@H](NC(=O)[C@@H](O)C(F)(F)F)CC3 [C627]	5.054%
CC[C@@]1(O)C(=O)OCc2c1cc1n(c2=O)Cc2c-1nc1cc(F)c(Cl)c3c1c2[C@H](NC(=O)[C@](C)(O)C(F)(F)F)CC3 [C703]	0.846%
CC[C@@]1(O)C(=O)OCc2c1cc1n(c2=O)Cc2c-1nc1cc(F)c(Cl)c3c1c2[C@H](NC(=O)[C@@H](C)O)CC3 [C678]	0.277%
CC[C@@]1(O)C(=O)OCc2c1cc1n(c2=O)Cc2c-1nc1cc(F)c(Br)c3c1c2C(NC(=O)[C@H](C)O)CC3 (mixture of isomers) [C595]	0.832%
CC[C@@]1(O)C(=O)OCc2c1cc1n(c2=O)Cc2c-1nc1cc(F)c(Cl)c3c1c2[C@H](N)CC3 [C731]	0.82%
CC[C@@]1(O)C(=O)OCc2c1cc1n(c2=O)Cc2c-1nc1cc(F)c(Cl)c3c1c2C(NC(=O)[C@H](O)C1CC1)CC3 (mixture of isomers) [C624]	0.916%
CC[C@@]1(O)C(=O)OCc2c1cc1n(c2=O)Cc2c-1nc1cc(F)c(Cl)c3c1c2[C@@H](NC(=O)C1(O)CC1)CC3 [C593]	2.514%
CC[C@@]1(O)C(=O)OCc2c1cc1n(c2=O)Cc2c-1nc1cc(F)c(C)c3c1c2[C@@H](NC(=O)COCCO)CC3 [C504]	0.703%
CC[C@@]1(O)C(=O)OCc2c1cc1n(c2=O)Cc2c-1nc1cc(F)c(Cl)c3c1c2[C@H](NC(=O)CCCO)CC3 [C680]	0.546%

Structure (SMILES)	Ratio activity (%)
CC[C@@]1(O)C(=O)OCc2c1cc1n(c2=O)Cc2c-1nc1cc(F)c(Cl)c3c1c2[C@H](NC(=O)C1(O)CC1)CC3 [C594]	0.568%
CC[C@@]1(O)C(=O)OCc2c1cc1n(c2=O)Cc2c-1nc1cc(F)c(OC)c3c1c2C(NC(=O)C[C@H](C)O)CC3 (mixture of isomers) [C665]	0.495%
CC[C@@]1(O)C(=O)OCc2c1cc1n(c2=O)Cc2c-1nc1cc(F)c(OC)c3c1c2C(NC(=O)CO)CC3 (mixture of isomers) [C664]	0.269%
CC[C@@]1(O)C(=O)OCc2c1cc1n(c2=O)Cc2c-1nc1cc(F)c(C)c3c1c2[C@@H](NC(=O)[C@@H](OCCO)C1CC1)CC3 [C562]	1.029%
CC[C@@]1(O)C(=O)OCc2c1cc1n(c2=O)Cc2c-1nc1cc(F)c(C)c3c1c2[C@@H](NC(=O)CO)CC3 [Dxd, reference compound]	1%
CC[C@@]1(O)C(=O)OCc2c1cc1n(c2=O)Cc2c-1nc1cc(F)c(OC)c3c1c2C(NC(=O)C(O)C(F)(F)F)CC3 (some centres unmarked) [C671]	0.365%
CC[C@@]1(O)C(=O)OCc2c1cc1n(c2=O)Cc2c-1nc1cc(F)c(Br)c3c1c2[C@@H](NC(=O)C[C@H](C)O)CC3 [C601]	1.826%
CC[C@@]1(O)C(=O)OCc2c1cc1n(c2=O)Cc2c-1nc1cc(F)c(Cl)c3c1c2C(NC(=O)C[C@H](C)O)CC3 (mixture of isomers) [C625]	0.783%
CC[C@@]1(O)C(=O)OCc2c1cc1n(c2=O)Cc2c-1nc1cc(F)c(Br)c3c1c2[C@H](NC(=O)CO)CC3 [C636]	0.682%
CC[C@@]1(O)C(=O)OCc2c1cc1n(c2=O)Cc2c-1nc1cc(F)c(Cl)c3c1c2[C@@H](NC(=O)COCCO)CC3 [C586]	0.259%
CC[C@@]1(O)C(=O)OCc2c1cc1n(c2=O)Cc2c-1nc1cc(F)c(Cl)c3c1c2[C@@H](NC(=O)[C@@H](C)O)CC3 [C677]	1.008%
CC[C@@]1(O)C(=O)OCc2c1cc1n(c2=O)Cc2c-1nc1cc(F)c(C)c3c1c2[C@@H](NC(=O)C1(OCCO)CC1)CC3 [C565]	1.381%
CC[C@@]1(O)C(=O)OCc2c1cc1n(c2=O)Cc2c-1nc1cc(F)c(Br)c3c1c2[C@@H](NC(=O)C(O)C(F)(F)F)CC3 (mixture of isomers) [C620]	0.384%
CC[C@@]1(O)C(=O)OCc2c1cc1n(c2=O)Cc2c-1nc1cc(F)c(C)c3c1c2[C@@H](NC(=O)C[C@@H](C)O)CC3 [C588]	1.019%
CC[C@@]1(O)C(=O)OCc2c1cc1n(c2=O)Cc2c-1nc1cc(F)c(C)c3c1c2[C@@H](NC(=O)C[C@H](C)O)CC3 [C589, (S)—N-((1S,9S)-9-ethyl-5-fluoro-9-hydroxy-4-methyl-10,13-dioxo-2,3,9,10,13,15-hexahydro-1H,12H-benzo[de]pyrano[3′,4′:6,7]indolizino[1,2-b]quinolin-1-yl)-3-hydroxybutanamide]	1.325%
CC[C@@]1(O)C(=O)OCc2c1cc1n(c2=O)Cc2c-1nc1cc(F)c(Cl)c3c1c2[C@@H](NC(=O)[C@@H](O)C1CC1)CC3 [C622]	0.669%
CC[C@@]1(O)C(=O)OCc2c1cc1n(c2=O)Cc2c-1nc1cc(F)c(C)c3c1c2[C@@H](NC(=O)[C@](C)(O)C(F)(F)F)CC3 [C687]	1.835%
CC[C@@]1(O)C(=O)OCc2c1cc1n(c2=O)Cc2c-1nc1cc(F)c(Br)c3c1c2[C@H](NC(=O)C(O)C(F)(F)F)CC3 (mixture of isomers) [C619]	0.434%
CC[C@@]1(O)C(=O)OCc2c1cc1n(c2=O)Cc2c-1nc1cc(F)c(C)c3c1c2[C@@H](NC(=O)[C@@](C)(O)C(F)(F)F)CC3 [C688]	0.744%
CC[C@@]1(O)C(=O)OCc2c1cc1n(c2=O)Cc2c-1nc1cc(F)c(Cl)c3c1c2[C@@H](NC(=O)CCCO)CC3 [C679]	0.49%
CC[C@@]1(O)C(=O)OCc2c1cc1n(c2=O)Cc2c-1nc1cc(F)c(Cl)c3c1c2[C@@H](NC(=O)[C@H](O)C(F)(F)F)CC3 [C626]	0.54%
CC[C@@]1(O)C(=O)OCc2c1cc1n(c2=O)Cc2c-1nc1cc(F)c(Cl)c3c1c2[C@@H](N)CC3 [C730]	1.35%
